Columns and labels:
T-cells = assay: Cytokine analysis (IL-2, IL-4, IFN-γ sandwich ELISA); assay type: cell-based, mice
Procedure: T-cells were stimulated with either immunizing peptides (10 μg/ml), the irrelevant control peptide (10 μg/ml), UV-inactivated HSV-1 (MOI=3), or with ConA (0.5 μg/ml) as a positive control. Culture media were harvested 48 h (for IL-2) or 96 h (for IL-4 and IFN-γ) later and analyzed by specific sandwich ELISA following the manufacturer's instructions (PharMingen, San Diego, Calif.).

[1] = tested on: lymphocytes obtained from HSV-1 infected H-2^d mice; assay: HSV-primed T-cell responses to gD peptides in HSV-1 infected mice; assay type: cell-based; conditions: HSV-1 infected H-2^d mice
Procedure: Twelve days after the second immunization, spleen and inguinal lymph nodes (LN) were removed and placed into ice-cold serum free HL-1 medium supplemented with 15 mM HEPES, 5×10^−5 M β-mercaptoethanol, 2 mM glutamine, 50 U of penicillin and 50 μg of streptomycin (GIBCO-BRL, Grand Island, N.Y.) (complete medium, CM). The cells were cultured in 96-well plates at 5×10^5 cells/well in CM, with recall or control peptide at 30, 10, 3, 1, or 0.3 μg/ml concentration, as previously described in (BenMohamed et al., 2000 and 2002). The cell suspensions were incubated for 72 h at 37° C. in 5% CO2. One μCi (micro-curie) of (^3H)-thymidine (Dupont MEN, Boston, Mass.) was added to each well during the last 16 h of culture. The incorporated radioactivity was determined by harvesting cells onto glass fiber filters and counted on a Matrix 96 direct ionization-counter (Packard Instruments, Meriden, Conn.). Results were expressed as the mean cpm of cell-associated (^3H)-thymidine recovered from wells containing Ag minus the mean cpm of cell-associated (^3H)-thymidine recovered from wells without Ag (A cpm) (average of triplicate). The Stimulation Index (SI) was calculated as the mean cpm of cell-associated (^3H)-thymidine recovered from wells containing Ag divided by the mean cpm of cell-associated (^3H)-thymidine recovered from wells without Ag (average of triplicate). For all experiments the irrelevant control peptide gB141-165 and the T-cell mitogen Concanavalin A (ConA) (Sigma, St. Louis, Mo.) were used as negative and positive controls, respectively. Proliferation results were confirmed by repeating each experiment twice. A T-cell proliferative response was considered positive when A cpm>1000 and SI>2.
To define the fine specificity of broadly reactive T-cells associated with viral immunity and to explore immunodominance in the context of HSV infection, proliferation of lymphocytes obtained from twenty HSV-1 infected H-2^d mice were evaluated using the twelve gD peptides as Ag (FIG. 6). […] Despite a difference between individual mice, a unique array of T-cell responses was identified for each of the twenty infected mice analyzed.

[2] = tested on: HLA-DR and HLA-DP molecules; assay: MHC class II binding assays, panel of twelve HLA class II molecules (number of alleles bound); conditions: number of the twelve class II MHC alleles bound; title: Threshold 600 nM/5 alleles
[3] = T cells treated with Abs to CD4
[4] = T cells treated with Abs to CD8
[5] = splenocyte derived T cells, no Abs, average of triplicates (+/- SD)

CC[C@H](C)[C@H](N)C(=O)N[C@@H](CS)C(=O)NCC(=O)N[C@H](C(=O)N[C@H](C(=O)N[C@@H](Cc1ccc(O)cc1)C(=O)N[C@@H](Cc1c[nH]c2ccccc12)C(=O)N[C@@H](CCSC)C(=O)N[C@@H](CCCNC(=N)N)C(=O)N[C@@H](CCCNC(=N)N)C(=O)N[C@@H](Cc1c[nH]cn1)C(=O)N[C@H](C(=O)N[C@@H](CCC(N)=O)C(=O)N[C@@H](CCCCN)C(=O)N[C@@H](C)C(=O)N1CCC[C@H]1C(=O)N[C@@H](CCCCN)C(=O)N[C@@H](CCCNC(=N)N)C(=O)N[C@H](C(=O)N[C@@H](CCCNC(=N)N)C(=O)N[C@@H](CC(C)C)C(=O)N1CCC[C@H]1C(=O)N[C@@H](Cc1c[nH]cn1)C(=O)N[C@H](C(=O)N[C@@H](CCCNC(=N)N)C(=O)N[C@@H](CCC(=O)O)C(=O)N[C@@H](CC(=O)O)C(=O)O)[C@@H](C)CC)[C@@H](C)CC)[C@@H](C)O)C(C)C)[C@@H](C)CC [HSV 39]
IFNγ, Anti-CD4 (T-cells; [3]): 4 (+/−1) ng/ml | IL-2, Anti-CD4 (T-cells; [3]): 36 (+/−1) pg/ml | IFNγ, Anti-CD8 (T-cells; [4]): 54 (+/−1) ng/ml | IL-2, Anti-CD8 (T-cells; [4]): 13 (+/−4) pg/ml | IFNγ, None (T-cells; [5]): 179 (+/5−) ng/ml | IL-2, None (T-cells; [5]): 135 (+/6−) pg/ml | immunodominance of epitopes in HSV-primed T-cell responses [1]: immunodominant epitopes | Range [2]: 6

Source: patent US20080299140A1, “Immunogenic Composition and Peptide Sequences for Prevention and Treatment of an Hsv Condition” (priority 2002, published 2008)
